Experimental data as given in patent US20120029187A1, “HALOALKYLSULFONANILIDE DERIVATIVE” (Nissan Chemical Industries, Ltd., priority 2009, published 2012).

Assays:
Assay type in all cases: in vivo
bulrush [1] = assay: Test Example 1: herbicidal effects in preemergence treatment under submerged conditions; settings: dose 2.52 g/a
How it was run: (§1)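 Flooded-paddy preemergence assay; EC diluted with water, surface-applied at weed seeding; doses g/a; rice transplanted at 2.5 leaves; 0–5 mortality score after 3 weeks.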

barnyardgrass [2] = assay: as above; settings: dose 2.52 g/a
How it was run: as §1

ducksalad [3] = assay: as above; settings: dose 2.52 g/a
How it was run: as §1

transplanted rice = assay: Test Example 1: preemergence treatment under submerged conditions, effect on crop; settings: dose 2.52 g/a
How it was run: as §1

common chickweed [4] = assay: Test Example 4: herbicidal effect in foliage treatment; settings: dose 3.2 g/a, three weeks after application
How it was run: (§2)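 Post-emergence foliar spray of water-diluted emulsifiable concentrate at predetermined doses (g per are), applied to plants 14 days after sowing in sterile diluvial soil (greenhouse, 25 to 30° C). Visual scale rating of effect taken 3 weeks later.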

Italian ryegrass [5] = assay: as above; settings: dose 3.2 g/a, three weeks after application
How it was run: as §2

water foxtail [6] = assay: as above; settings: dose 3.2 g/a, three weeks after application
How it was run: as §2

posumbu knotweed [7] = assay: as above; settings: dose 3.2 g/a, three weeks after application
How it was run: as §2

barnyardgrass [8] = assay: as above; settings: dose 3.2 g/a, three weeks after application
How it was run: as §2

large crabgrass [9] = assay: as above; settings: dose 3.2 g/a, three weeks after application
How it was run: as §2

velvetleaf [10] = assay: as above; settings: dose 3.2 g/a, three weeks after application
How it was run: as §2

beadstraw = assay: as above; settings: dose 3.2 g/a, three weeks after application
How it was run: as §2

common lambsquater [11] = assay: as above; settings: dose 3.2 g/a, three weeks after application
How it was run: as §2

common ragweed [12] = assay: as above; settings: dose 3.2 g/a, three weeks after application
How it was run: as §2

redroot pigweed [13] = assay: as above; settings: dose 3.2 g/a, three weeks after application
How it was run: as §2

giant foxtail [14] = assay: as above; settings: dose 3.2 g/a, three weeks after application
How it was run: as §2

common chickweed [15] = assay: Test Example 3: herbicidal effects in soil treatment; settings: dose 3.2 g/a
How it was run: (§3)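 Seeds were sown in sterilized diluvial soil and covered with about 1.5 cm of soil. Compounds, formulated as emulsifiable concentrates and diluted with water, were sprayed evenly over the soil surface at set doses in g/a. Herbicidal effect was scored on a rating scale three weeks later.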

Italian ryegrass [16] = assay: as above; settings: dose 3.2 g/a
How it was run: as §3

water foxtail [17] = assay: as above; settings: dose 3.2 g/a
How it was run: as §3

posumbu knotweed [18] = assay: as above; settings: dose 3.2 g/a
How it was run: as §3

barnyardgrass [19] = assay: as above; settings: dose 3.2 g/a
How it was run: as §3

large crabgrass [20] = assay: as above; settings: dose 3.2 g/a
How it was run: as §3

velvetleaf [21] = assay: as above; settings: dose 3.2 g/a
How it was run: as §3

common lambsquater [22] = assay: as above; settings: dose 3.2 g/a
How it was run: as §3

common ragweed [23] = assay: as above; settings: dose 3.2 g/a
How it was run: as §3

redroot pigweed [24] = assay: as above; settings: dose 3.2 g/a
How it was run: as §3

giant foxtail [25] = assay: as above; settings: dose 3.2 g/a
How it was run: as §3

bulrush [26] = assay: Test Example 2: herbicidal effects during the vegetation period under submerged conditions; settings: treatment during the vegetation period under submerged conditions; dose 2.52 g/a
How it was run: (§4)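 Barnyardgrass, bulrush and ducksalad were co-sown in alluvial soil flooded to 4 cm and grown in a greenhouse at 25 to 30° C. At the 1- or 2-leaf stage, water-diluted emulsifiable concentrates went onto the water surface at set doses (g/a). Herbicidal effect was scored three weeks later on a graded scale.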

barnyardgrass [27] = assay: as above; settings: treatment during the vegetation period under submerged conditions; dose 2.52 g/a
How it was run: as §4

ducksalad [28] = assay: as above; settings: treatment during the vegetation period under submerged conditions; dose 2.52 g/a
How it was run: as §4

SMILES	B: bulrush, herbicidal effect (evaluation scale 0-5) (bulrush [1])	A: barnyardgrass, herbicidal effect (evaluation scale 0-5) (barnyardgrass [2])	C: ducksalad, herbicidal effect (evaluation scale 0-5) (ducksalad [3])	a: transplanted rice, effect on crop (evaluation scale 0-5) (transplanted rice)	N: common chickweed, herbicidal effect (common chickweed [4])	H: Italian ryegrass, herbicidal effect (Italian ryegrass [5])	G: water foxtail, herbicidal effect (water foxtail [6])	M: posumbu knotweed, herbicidal effect (posumbu knotweed [7])	A: barnyardgrass, herbicidal effect (barnyardgrass [8])	D: large crabgrass, herbicidal effect (large crabgrass [9])	I: velvetleaf, herbicidal effect (velvetleaf [10])	O: beadstraw, herbicidal effect (beadstraw)	L: common lambsquater, herbicidal effect (common lambsquater [11])	J: common ragweed, herbicidal effect (common ragweed [12])	K: redroot pigweed, herbicidal effect (redroot pigweed [13])	E: giant foxtail, herbicidal effect (giant foxtail [14])	H: Italian ryegrass, herbicidal effect (evaluation scale 0-5) (Italian ryegrass [16])	G: water foxtail, herbicidal effect (evaluation scale 0-5) (water foxtail [17])	M: posumbu knotweed, herbicidal effect (evaluation scale 0-5) (posumbu knotweed [18])	A: barnyardgrass, herbicidal effect (evaluation scale 0-5) (barnyardgrass [19])	other results
CCOC(=O)N(c1ccccc1CN1COC(C)(C)C(Br)C1=O)S(=O)(=O)C(F)(F)F (centres unmarked) [II-39, 5-bromo-6,6-dimethyl-3-[2-(N-ethoxylcarbonyl-N-trifluoromethanesulfonyl)aminobenzyl]-1,3-oxazinan-4-one]	5 (mortality of 90% or above (nearly complete death))	5 (mortality of 90% or above (nearly complete death))	5 (mortality of 90% or above (nearly complete death))	0 (mortality of less than 5% (almost ineffective))	4 (mortality of at least 70% and less than 90%)	3 (mortality of at least 40% and less than 70%)	5 (mortality of 90% or above (nearly complete death))	3 (mortality of at least 40% and less than 70%)	5 (mortality of 90% or above (nearly complete death))	4 (mortality of at least 70% and less than 90%)	5 (mortality of 90% or above (nearly complete death))	4 (mortality of at least 70% and less than 90%)	3 (mortality of at least 40% and less than 70%)	5 (mortality of 90% or above (nearly complete death))	4 (mortality of at least 70% and less than 90%)	5 (mortality of 90% or above (nearly complete death))	5 (mortality of 90% or above (nearly complete death))	5 (mortality of 90% or above (nearly complete death))	5 (mortality of 90% or above (nearly complete death))	5 (mortality of 90% or above (nearly complete death))	N: common chickweed, herbicidal effect (evaluation scale 0-5) (common chickweed [15]): 5 (mortality of 90% or above (nearly complete death)); D: large crabgrass, herbicidal effect (evaluation scale 0-5) (large crabgrass [20]): 5 (mortality of 90% or above (nearly complete death)); I: velvetleaf, herbicidal effect (evaluation scale 0-5) (velvetleaf [21]): 5 (mortality of 90% or above (nearly complete death)); L: common lambsquater, herbicidal effect (evaluation scale 0-5) (common lambsquater [22]): 5 (mortality of 90% or above (nearly complete death)); J: common ragweed, herbicidal effect (evaluation scale 0-5) (common ragweed [23]): 4 (mortality of at least 70% and less than 90%); K: redroot pigweed, herbicidal effect (evaluation scale 0-5) (redroot pigweed [24]): 1 (mortality of at least 5% and less than 20%); E: giant foxtail, herbicidal effect (evaluation scale 0-5) (giant foxtail [25]): 5 (mortality of 90% or above (nearly complete death)); B: bulrush, herbicidal effect (evaluation scale 0-5) (bulrush [26]): 5 (mortality of 90% or above (nearly complete death)); A: barnyardgrass, herbicidal effect (evaluation scale 0-5) (barnyardgrass [27]): 5 (mortality of 90% or above (nearly complete death)); C: ducksalad, herbicidal effect (evaluation scale 0-5) (ducksalad [28]): 5 (mortality of 90% or above (nearly complete death))
CCC(=O)N(c1ccccc1CN1COC(C)(C(F)(F)F)CC1=O)S(=O)(=O)C(F)(F)F (centres unmarked) [II-47]	5 (mortality of 90% or above (nearly complete death))	5 (mortality of 90% or above (nearly complete death))	5 (mortality of 90% or above (nearly complete death))	0 (mortality of less than 5% (almost ineffective))	3 (mortality of at least 40% and less than 70%)	0 (mortality of less than 5% (almost ineffective))	2 (mortality of at least 20% and less than 40%)	2 (mortality of at least 20% and less than 40%)	4 (mortality of at least 70% and less than 90%)	1 (mortality of at least 5% and less than 20%)	4 (mortality of at least 70% and less than 90%)	4 (mortality of at least 70% and less than 90%)	0 (mortality of less than 5% (almost ineffective))	2 (mortality of at least 20% and less than 40%)	0 (mortality of less than 5% (almost ineffective))	2 (mortality of at least 20% and less than 40%)	3 (mortality of at least 40% and less than 70%)	5 (mortality of 90% or above (nearly complete death))	3 (mortality of at least 40% and less than 70%)	5 (mortality of 90% or above (nearly complete death))	D: large crabgrass, herbicidal effect (evaluation scale 0-5) (large crabgrass [20]): 5 (mortality of 90% or above (nearly complete death)); I: velvetleaf, herbicidal effect (evaluation scale 0-5) (velvetleaf [21]): 4 (mortality of at least 70% and less than 90%); L: common lambsquater, herbicidal effect (evaluation scale 0-5) (common lambsquater [22]): 3 (mortality of at least 40% and less than 70%); J: common ragweed, herbicidal effect (evaluation scale 0-5) (common ragweed [23]): 4 (mortality of at least 70% and less than 90%); K: redroot pigweed, herbicidal effect (evaluation scale 0-5) (redroot pigweed [24]): 0 (mortality of less than 5% (almost ineffective)); E: giant foxtail, herbicidal effect (evaluation scale 0-5) (giant foxtail [25]): 4 (mortality of at least 70% and less than 90%); B: bulrush, herbicidal effect (evaluation scale 0-5) (bulrush [26]): 5 (mortality of 90% or above (nearly complete death)); A: barnyardgrass, herbicidal effect (evaluation scale 0-5) (barnyardgrass [27]): 4 (mortality of at least 70% and less than 90%); C: ducksalad, herbicidal effect (evaluation scale 0-5) (ducksalad [28]): 5 (mortality of 90% or above (nearly complete death))
